Test results published in PubChem BioAssay AID330 (DTP/NCI, 2004).
Where “and” joins values, the source holds several entries; their conditions need not be identical. Identical values can stand only once. Inconclusive results and toxic doses are left out. Peptide text beside a SMILES is read from it. * marks the point of attachment. Cbz = O=C(OCc1ccccc1)*

Tested on: P388 leukemia ip, CD2F1 mice, survival T/C
Assay: NCI In Vivo Anticancer Drug Screen. Data for tumor model P388 Leukemia (intraperitoneal) in CD2F1 (CDF1) mice
Settings: higher = longer survival
Summary of the method: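 Mice carrying the transplanted tumor received test compound or vehicle. Survival was recorded in each group, and the value is the treated-group measurement divided by that of the vehicle-treated control group.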

[1] = endpoint: median survival time, dose: 100.0 mg/kg/injection, schedule: Q01DX001 (ip), vehicle: saline
[2] = endpoint: median survival time, dose: 200.0 mg/kg/injection, schedule: Q01DX001 (ip), vehicle: saline
[3] = endpoint: median survival time, dose: 100.0 mg/kg/injection, schedule: Q01DX009 (ip), vehicle: saline with Tween-80
[4] = endpoint: median survival time, dose: 50.0 mg/kg/injection, schedule: Q01DX009 (ip), vehicle: Klucel (hydroxypropylcellulose) (HPC)
[5] = endpoint: median survival time, dose: 100.0 mg/kg/injection, schedule: Q01DX009 (ip), vehicle: Klucel (hydroxypropylcellulose) (HPC)
[6] = endpoint: median survival time, dose: 200.0 mg/kg/injection, schedule: Q01DX009 (ip), vehicle: Klucel (hydroxypropylcellulose) (HPC)
[7] = endpoint: median survival time, dose: 50.0 mg/kg/injection, schedule: Q01DX005 (ip), vehicle: saline + Tween-80 + alcohol
[8] = endpoint: median survival time, dose: 100.0 mg/kg/injection, schedule: Q01DX005 (ip), vehicle: saline + Tween-80 + alcohol
[9] = endpoint: median survival time, dose: 200.0 mg/kg/injection, schedule: Q01DX005 (ip), vehicle: saline + Tween-80 + alcohol
[10] = endpoint: median survival time, dose: 50.0 mg/kg/injection, schedule: Q01DX005 (ip), vehicle: saline with Tween-80
[11] = endpoint: median survival time, dose: 100.0 mg/kg/injection, schedule: Q01DX005 (ip), vehicle: saline with Tween-80
[12] = endpoint: median survival time, dose: 200.0 mg/kg/injection, schedule: Q01DX005 (ip), vehicle: saline with Tween-80
[13] = endpoint: median survival time, dose: 60.0 mg/kg/injection, schedule: Q01DX005 (ip), vehicle: saline with Tween-80
[14] = endpoint: median survival time, dose: 120.0 mg/kg/injection, schedule: Q01DX005 (ip), vehicle: saline with Tween-80
[15] = endpoint: median survival time, dose: 240.0 mg/kg/injection, schedule: Q01DX005 (ip), vehicle: saline with Tween-80

SMILES: C=CCN(CC=C)Sc1cccc([N+](=O)[O-])c1
- T/C (endpoint: median survival time, dose: 50.0 mg/kg/injection, schedule: Q01DX009 (ip), vehicle: saline): 109 % of control
- T/C (endpoint: median survival time, dose: 100.0 mg/kg/injection, schedule: Q01DX009 (ip), vehicle: saline): 117 % of control

SMILES: CCC(C)C(C)CNC12CN3CN(CN(C3)C1)C2 (stereo not given)
- T/C (endpoint: median survival time, dose: 50.0 mg/kg/injection, schedule: Q01DX001 (ip), vehicle: saline): 103 % of control
- T/C [1]: 104 % of control
- T/C [2]: 108 % of control

SMILES: COc1cc2c(cc1OC)C(Cc1cc(OC)c(OC)cc1[N+](=O)[O-])=[N+](C)CC2
- T/C (endpoint: median survival time, dose: 25.0 mg/kg/injection, schedule: Q01DX009 (ip), vehicle: other): 98 % of control
- T/C (endpoint: median survival time, dose: 50.0 mg/kg/injection, schedule: Q01DX009 (ip), vehicle: other): 96 % of control
- T/C (endpoint: median survival time, dose: 100.0 mg/kg/injection, schedule: Q01DX009 (ip), vehicle: other): 102 % of control

SMILES: CCOC(=O)c1ccc(NC(=O)OCc2ccccc2)cc1
- T/C (endpoint: median survival time, dose: 50.0 mg/kg/injection, schedule: Q01DX009 (ip), vehicle: saline with Tween-80): 91 % of control
- T/C [3]: 86 % of control
- T/C (endpoint: median survival time, dose: 200.0 mg/kg/injection, schedule: Q01DX009 (ip), vehicle: saline with Tween-80): 96 % of control
- T/C (endpoint: median survival time, dose: 400.0 mg/kg/injection, schedule: Q01DX009 (ip), vehicle: saline with Tween-80): 107 % of control

SMILES: CCCCN(CCCC)C(=S)C(O)(c1ccccc1)c1ccccc1
- T/C [4]: 95 % of control
- T/C [5]: 91 % of control
- T/C [6]: 90 % of control

SMILES: O=C(NC(Cc1ccccc1)C(=O)NC(Cc1ccc(O)cc1)C(=O)O)OCc1ccccc1 (stereo not drawn) (Cbz-Phe-Tyr-OH; configuration not given here)
- T/C [7]: 97 % of control
- T/C [8]: 95 % of control
- T/C [9]: 96 % of control

SMILES: COC(=O)C1(c2ccccc2)OP2(N(C)C)(OC1(C(=O)OC)c1ccccc1)N(C)CCN2C (stereo not given)
- T/C [7]: 104 % of control
- T/C [10]: 102 % of control
- T/C [8]: 100 % of control
- T/C [11]: 102 % of control
- T/C [9]: 100 % of control
- T/C [12]: 105 % of control

SMILES: COc1cc([N+](=O)[O-])cc2c1OC1(N=C2)Sc2ccccc2N1C (stereo not given)
- T/C [1]: 103 % of control
- T/C [2]: 100 % of control
- T/C (endpoint: median survival time, dose: 400.0 mg/kg/injection, schedule: Q01DX001 (ip), vehicle: saline): 103 % of control

SMILES: O=S(=O)(O)c1ccc(-c2ccc(S(=O)(=O)O)cc2)cc1 (tested in a mixture with another compound)
- T/C (endpoint: mean survival time, dose: 20.0 mg/kg/injection, schedule: Q01DX009 (ip), vehicle: saline): 253 % of control
- T/C (endpoint: mean survival time, dose: 40.0 mg/kg/injection, schedule: Q01DX009 (ip), vehicle: saline): 232 % of control
- T/C (endpoint: median survival time, dose: 12.5 mg/kg/injection, schedule: Q01DX009 (ip), vehicle: saline sonified): 154 % of control
- T/C (endpoint: median survival time, dose: 20.0 mg/kg/injection, schedule: Q01DX009 (ip), vehicle: saline): 231 % of control
- T/C (endpoint: median survival time, dose: 25.0 mg/kg/injection, schedule: Q01DX009 (ip), vehicle: saline sonified): 150 % of control
- T/C (endpoint: median survival time, dose: 33.0 mg/kg/injection, schedule: Q04DX003 (ip), vehicle: saline): 165 % of control
- T/C (endpoint: median survival time, dose: 40.0 mg/kg/injection, schedule: Q01DX009 (ip), vehicle: saline): 272 % of control
- T/C (endpoint: median survival time, dose: 50.0 mg/kg/injection, schedule: Q01DX009 (ip), vehicle: saline sonified): 272 % of control
- T/C (endpoint: median survival time, dose: 50.0 mg/kg/injection, schedule: Q04DX003 (ip), vehicle: saline sonified): 181 % of control
- T/C (endpoint: median survival time, dose: 50.0 mg/kg/injection, schedule: Q04DX003 (ip), vehicle: saline): 169 % of control
- T/C (endpoint: median survival time, dose: 75.0 mg/kg/injection, schedule: Q04DX003 (ip), vehicle: saline): 221 % of control

SMILES: O=[N+]([O-])c1ccc(-c2cn(-c3ccc(Cl)cc3)cn2)cc1
- T/C [13]: 96 % of control
- T/C [14]: 88 % of control
- T/C [15]: 88 % of control

SMILES: CCN(CC)c1ccc2cc(-n3nnc4ccccc43)c(=O)oc2c1
- T/C [13]: 96 % of control
- T/C [14]: 96 % of control
- T/C [15]: 99 % of control

SMILES: COc1ccc(CCN2C=CC(C#N)C=C2)cc1OC
- T/C (endpoint: median survival time, dose: 50.0 mg/kg/injection, schedule: Q01DX005 (ip), vehicle: Klucel (hydroxypropylcellulose) (HPC)): 91 % of control
- T/C (endpoint: median survival time, dose: 100.0 mg/kg/injection, schedule: Q01DX005 (ip), vehicle: Klucel (hydroxypropylcellulose) (HPC)): 101 % of control
- T/C (endpoint: median survival time, dose: 200.0 mg/kg/injection, schedule: Q01DX005 (ip), vehicle: Klucel (hydroxypropylcellulose) (HPC)): 98 % of control

SMILES: O=C1c2cccc3cc([N+](=O)[O-])cc(c23)C(=O)N1CCCN(CCO)CCO
- T/C (endpoint: median survival time, dose: 25.0 mg/kg/injection, schedule: Q01DX005 (ip), vehicle: saline with Tween-80): 105 % of control
- T/C [10]: 107 % of control
- T/C [11]: 108 % of control and 121 % of control

SMILES: CN1c2ccccc2SC1(C)CCC(=O)O (stereo not given)
- T/C (endpoint: median survival time, dose: 60.0 mg/kg/injection, schedule: Q01DX005 (ip), vehicle: Klucel (hydroxypropylcellulose) (HPC)): 105 % of control
- T/C (endpoint: median survival time, dose: 120.0 mg/kg/injection, schedule: Q01DX005 (ip), vehicle: Klucel (hydroxypropylcellulose) (HPC)): 104 % of control

SMILES: c1ccc2c(c1)-c1cc3ccc4ccccc4c3nc1C1OC21 (stereo not given)
- T/C (endpoint: median survival time, dose: 25.0 mg/kg/injection, schedule: Q04DX002 (ip), vehicle: saline with Tween-80): 105 % of control
- T/C (endpoint: median survival time, dose: 50.0 mg/kg/injection, schedule: Q04DX002 (ip), vehicle: saline with Tween-80): 99 % of control
- T/C (endpoint: median survival time, dose: 100.0 mg/kg/injection, schedule: Q04DX002 (ip), vehicle: saline with Tween-80): 100 % of control

SMILES: CSc1cccc(NC(=O)Nc2c(C)n(C)n(-c3ccccc3)c2=O)c1
- T/C [4]: 92 % of control
- T/C [5]: 96 % of control
- T/C [6]: 88 % of control

SMILES: CC1(CCl)COP(=O)(NN)OC1 (stereo not given)
- T/C (endpoint: median survival time, dose: 60.0 mg/kg/injection, schedule: Q01DX005 (ip), vehicle: saline): 101 % of control
- T/C (endpoint: median survival time, dose: 120.0 mg/kg/injection, schedule: Q01DX005 (ip), vehicle: saline): 102 % of control

SMILES: CC(=O)O/C=C(/C=C/OC(C)=O)C(C/C=C(\C)C#CC=C(C)C)OC(C)=O (stereo not given)
- T/C (endpoint: median survival time, dose: 5.31 mg/kg/injection, schedule: Q01DX005 (ip), vehicle: saline with Tween-80): 98 % of control
- T/C (endpoint: median survival time, dose: 10.62 mg/kg/injection, schedule: Q01DX005 (ip), vehicle: saline with Tween-80): 103 % of control
- T/C (endpoint: median survival time, dose: 21.25 mg/kg/injection, schedule: Q01DX005 (ip), vehicle: saline with Tween-80): 103 % of control and 94 % of control
- T/C (endpoint: median survival time, dose: 42.5 mg/kg/injection, schedule: Q01DX005 (ip), vehicle: saline with Tween-80): 87 % of control

SMILES: O=C(CBr)CC(O)(C(F)(F)F)C(F)(F)F
- T/C (endpoint: median survival time, dose: 3.0 mg/kg/injection, schedule: Q04DX003 (ip), vehicle: saline): 100 % of control
- T/C (endpoint: median survival time, dose: 6.0 mg/kg/injection, schedule: Q04DX003 (ip), vehicle: saline): 100 % of control
- T/C (endpoint: median survival time, dose: 12.0 mg/kg/injection, schedule: Q04DX003 (ip), vehicle: saline): 91 % of control

SMILES: O=[N+]([O-])c1cnc2n(O)cccc1-2
- T/C (endpoint: median survival time, dose: 100.0 mg/kg/injection, schedule: Q01DX001 (ip), vehicle: saline with Tween-80): 90 % of control
- T/C (endpoint: median survival time, dose: 200.0 mg/kg/injection, schedule: Q01DX001 (ip), vehicle: saline with Tween-80): 87 % of control

SMILES: CC1CN(Cc2ccccc2)CC(C)N1Cc1ccccc1 (stereo not given)
- T/C [10]: 103 % of control
- T/C [11]: 105 % of control
- T/C [12]: 103 % of control

SMILES: CC(C)=CCc1c(C)c(O)c(C)c(C)c1O
- T/C (endpoint: median survival time, dose: 12.5 mg/kg/injection, schedule: Q01DX009 (ip), vehicle: distilled water + Tween-80 + alcohol): 100 % of control
- T/C (endpoint: median survival time, dose: 25.0 mg/kg/injection, schedule: Q01DX009 (ip), vehicle: distilled water + Tween-80 + alcohol): 92 % of control
- T/C (endpoint: median survival time, dose: 50.0 mg/kg/injection, schedule: Q01DX009 (ip), vehicle: distilled water + Tween-80 + alcohol): 100 % of control
- T/C (endpoint: median survival time, dose: 100.0 mg/kg/injection, schedule: Q01DX009 (ip), vehicle: distilled water + Tween-80 + alcohol): 95 % of control
- T/C (endpoint: median survival time, dose: 200.0 mg/kg/injection, schedule: Q01DX009 (ip), vehicle: distilled water + Tween-80 + alcohol): 104 % of control

SMILES: CCOC(=O)c1[nH]cnc1/N=N/N(C)C
- T/C [3]: 90 % of control
- T/C (endpoint: median survival time, dose: 150.0 mg/kg/injection, schedule: Q04DX003 (ip), vehicle: saline with Tween-80): 120 % of control
- T/C (endpoint: median survival time, dose: 200.0 mg/kg/injection, schedule: Q04DX003 (ip), vehicle: saline with Tween-80): 150 % of control
